According to patent publication US10525073B2, “Method for improving kidney and/or heart function in patients with kidney disease” (MacKay Memorial Hospital, priority 2015, dated 2020):

Tests used:
Type in all cases: in vivo, Sprague Dawley rats
[1] = system: IL-6 and COL-1-A1 in heart tissue of CKD rats; assay: Western blot of IL-6 and COL-1-A1 in heart tissue of CKD rats
Method: (§1) SD rats (about 10 weeks old) scheduled to undergo 5/6 nephrectomy or sham surgery were anesthetized by Zoletil 50/Xylazine (6 mg/1.3 mg/Kg, i.p.). Then, the left kidney was exposed, and the upper and lower poles were tied with a suture line, followed by right nephrectomy. The peritoneum and skin were then sutured, and the animals were returned to their individual cages. […] Two weeks after sham or 5/6 nephrectomy surgery, the animals were subjected to a 24-hour urine collection and non-invasive tail blood pressure measurement every 4 weeks. […]
(§2) 5/6 nephrectomy is a procedure in which one kidney of a test animal is removed and 2/3 of the remaining kidney is ablated, thereby mimics the progressive renal failure after loss of renal mass in humans. […] Blood and urine samples were respectively collected on designated days and analyzed for the levels of blood urine nitrogen (BUN), serum creatine (CR), and hepatic enzymes (i.e., alanine aminotransferase (ALT) and aspartate aminotransferase (AST)). Heart function was determined by monitoring the changes in diastolic parameter—Tissue Velocity Imaging (TVI_V), E/A ratio, and the strain in cardia muscle (C_strain), left ventrical mass (LVMASS). […]

[2] = system: CKD rats; assay: Heart fibrosis in CKD rats; conditions: heart tissue of CKD rats, telbivudine-treated vs untreated (FIG. 5)
Method: as §1, §2

[3] = system: IL-6, TGF-β, TIMP1 and COL-1-A1 in kidney tissue of CKD rats; assay: Western blot of inflammatory proteins in kidney tissue of CKD rats
Method: SD rats (about 10 weeks old) scheduled to undergo 5/6 nephrectomy or sham surgery were anesthetized by Zoletil 50/Xylazine (6 mg/1.3 mg/Kg, i.p.). Then, the left kidney was exposed, and the upper and lower poles were tied with a suture line, followed by right nephrectomy. The peritoneum and skin were then sutured, and the animals were returned to their individual cages. […] Two weeks after sham or 5/6 nephrectomy surgery, the animals were subjected to a 24-hour urine collection and non-invasive tail blood pressure measurement every 4 weeks. Four weeks after the surgery, rats underwent 5/6 nephrectomy or shame surgery were randomly assigned into two groups, i.e., the control and the telbivudine groups, in which the control group received saline treatment, and rats in the telbivudine group received telbivudine (10 mg/mL/Kg) treatment for 8 or 12 weeks. Animals were then sacrificed, and kidney and heart biopsy samples were obtained.
For protein identification, 30 μg nuclear extracted protein was loaded in each lane of the SDS-PAGE gel (8%) and separated by electrophoresis. The separated proteins were then electro-transferred to polyvinylidene fluoride (PVDF) membranes (GE Healthcare Bio-Sciences, Little Chalfont, UK), and blocked with 5% fat-free skim milk in TRIS-buffered saline containing 0.01% Tween-20 for 60 min at room temperature. The membrane was then incubated with rabbit polyclonalanti-IL-6, TGF-β, TIMP-1 and COL1-1 (diluted 1:1000 in PBS/5% skim milk; Novus. Biologicals) antibodies overnight at 4, respectively. HRP conjugated anti-rabbit IgG (Promega) was then used as secondary antibody. Immunoreactive protein was visualized by the chemiluminescence protocol (ECL, GE HealthcareBio-Sciences). Anti-actin rabbit polyclonal antibody (1:1000; Sigma-Aldrich) was used for calibration.
as §2, with “humans. Briefly, approximately 50% of the remaining kidney of the rat was removed by polar excision 1-2 weeks after uni-nephrectomy. Then, the animals were randomly assigned to two groups, the telbivudine group and the control group.” for “humans.”

[4] = system: IL-6 and COL-1-A1 in heart tissue of CKD rats; assay: Quantitative RT-PCR of IL-6 and COL-1-A1 in heart tissue of CKD rats
Method: as §1
Total RNA was extracted from fresh frozen renal and heart tissues using the Trizol Reagent (Life Technologies), according to the manufacturer protocol. […] The concentration and purity of RNA were determined by Nanodrop Spectrophotometer (Thermo Scientific). […]
5/6 nephrectomy is a procedure in which one kidney of a test animal is removed and 2/3 of the remaining kidney is ablated, thereby mimics the progressive renal failure after loss of renal mass in humans. […] Blood and urine samples were respectively collected on designated days and analyzed for the levels of blood urine nitrogen (BUN), serum creatine (CR), and hepatic enzymes (i.e., alanine aminotransferase (ALT) and aspartate aminotransferase (AST)). […]

Cc1cn([C@@H]2C[C@@H](O)[C@H](CO)O2)c(=O)[nH]c1=O [telbivudine]
protein level of COL-1-A1 [1]: markedly reduced
protein level of IL-6 [1]: markedly reduced
extent of fibrotic tissues in heart [2]: markedly reduced
protein level of COL-1-A1 [3]: reduced
protein level of IL-6 [3]: reduced
protein level of TGF-β [3]: reduced
protein level of TIMP1 [3]: reduced
mRNA level of COL-1-A1 [4]: markedly reduced
mRNA level of IL-6 [4]: markedly reduced
